Results taken from paper doi:10.1101/2020.12.13.873687v1 (biorxiv, 2020).

The compounds below were run against human amylin (islet amyloid polypeptide, IAPP) (Homo sapiens, UniProt P10997) (assay: thioflavin T fluorescence amyloid aggregation inhibition).
Format: biochemical

Chain of human amylin (islet amyloid polypeptide, IAPP) (P10997 34-70): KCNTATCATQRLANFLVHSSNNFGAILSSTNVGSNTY

| IC50 | SMILES |
| --- | --- |
| 0.2 to 0.3 µM | O=C(/C=C/c1ccc(O)c(O)c1)O[C@H](Cc1ccc(O)c(O)c1)C(=O)O [rosmarinic acid] |
| 90 µM | O=C(O)[C@H](O)Cc1ccc(O)c(O)c1 [salvianic acid A] |
| 7.2 µM | O=C(O)/C=C/c1ccc(O)c(O)c1 [caffeic acid] |
| ~1 µM | O=C(O[C@@H]1Cc2c(O)cc(O)cc2O[C@@H]1c1cc(O)c(O)c(O)c1)c1cc(O)c(O)c(O)c1 [Epigallocatechin gallate, reference compound] |
